# Measurements: US6509344B1, “Indenoisoquinolines as antineoplastic agents” (The United States of America as represented by the …, priority 1998, dated 2003)
# Assays:
# topoisomerase I = biological target: T1, topoisomerase I (Homo sapiens, UniProt P11387); experiment: Topoisomerase I-mediated DNA cleavage assay (3'-end-labeled 161 bp pBluescript SK(-) fragment); format: biochemical; details: relative to the activity of 1 μM camptothecin
# T1 sequence (P11387 1-765): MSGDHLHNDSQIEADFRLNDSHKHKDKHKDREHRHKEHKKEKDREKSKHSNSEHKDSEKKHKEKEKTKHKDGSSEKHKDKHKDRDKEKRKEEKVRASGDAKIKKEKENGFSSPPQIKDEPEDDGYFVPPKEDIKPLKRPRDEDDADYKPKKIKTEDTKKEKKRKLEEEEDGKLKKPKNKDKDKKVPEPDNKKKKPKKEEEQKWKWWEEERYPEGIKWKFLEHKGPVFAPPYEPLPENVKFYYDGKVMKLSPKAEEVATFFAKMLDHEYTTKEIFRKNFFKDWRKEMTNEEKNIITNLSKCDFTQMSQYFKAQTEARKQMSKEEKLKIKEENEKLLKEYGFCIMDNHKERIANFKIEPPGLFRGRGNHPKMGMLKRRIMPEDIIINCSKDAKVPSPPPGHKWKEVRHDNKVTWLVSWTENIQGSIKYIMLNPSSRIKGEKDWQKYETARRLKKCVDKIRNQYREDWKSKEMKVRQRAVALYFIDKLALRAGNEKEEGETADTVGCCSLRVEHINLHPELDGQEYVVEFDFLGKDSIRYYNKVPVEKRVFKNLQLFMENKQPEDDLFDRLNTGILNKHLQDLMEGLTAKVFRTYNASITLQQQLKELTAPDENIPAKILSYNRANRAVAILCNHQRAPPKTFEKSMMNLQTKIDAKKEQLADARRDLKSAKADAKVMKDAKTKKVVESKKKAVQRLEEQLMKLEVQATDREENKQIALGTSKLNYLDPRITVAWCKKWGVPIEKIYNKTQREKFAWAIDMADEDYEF
# Procedure: Topoisomerase I-Mediated DNA Cleavage Reactions Using 3′-End-labeled 161 BP Plasmid DNA
# The 161 bp fragment from pBluescript SK(−) phagemid DNA (Stratagene, La Jolla, Calif.) was cleaved with the restriction endonuclease Pvu II and Hind III (New England Biolabs, Beverly, Mass.) in supplied NE buffer 2 (10 μL reactions) for 1 h at 37° C., separated by electrophoresis in a 1% agarose gel made in 1×TBE buffer. The 161 bp fragment was eluted from the gel slice (centrilutor by Amicon) and concentrated in a centricon 50 centrifugal concentrator (Amicon, Beverly, Mass.). Approximately 200 ng of the fragment was 3′-end-labeled at the Hind III site by fill-in reaction with [alpha-^32P]-dCTP and 0.5 mM dATP, dGTP, and dTTP, in React 2 buffer (50 mM Tris-HCl, pH 8.0, […], 50 mM NaCl) with 0.5 units of DNA polymerase I (Klenow fragment). Labeling reactions were followed by phenol-chloroform extraction and ethanol precipitation. The resulting 161 bp 3′-endlabeled DNA fragment was resuspended in water. Aliquots (approximately 50,000 dpm/reaction) were incubated with topoisomerase I at 30° C. for 15 min in the presence of the indicated drug. Reactions were terminated by adding 0.5% SDS. After ethanol precipitation, the samples were resuspended in loading buffer (80% formamide, 10 mM sodium hydroxide, 1 mM sodium EDTA, 0.1% xylene cyanol, and 0.1% bromophenol blue, pH 8.0), and separated in a denaturing gel (16% polyacrylamide, 7 M urea) run at 51° C. The gel was dried and visualized by using a Phosphoimager and ImageQuant software (Molecular Dynamics, Sunnyvale, Calif.).
# DU-145 = experiment: NCI human cancer cell line screen (COMPARE screening), Prostate DU-145; format: cell-based; details: Homo sapiens; DU-145; concentration causing 50% growth inhibition; read-out: Cytotoxicity (G150 in μM) Prostate DU-145
# Source text: (§1) Considering the diversity of cancer in terms of cell type, morphology, growth rate and other cellular characteristics, the U.S. National Cancer Institute (NCI) has developed a “disease-oriented” approach to anticancer activity screening (M. R. Boyd, in “Principle of Practice of Oncology” […]. Rosenberg (Eds.) Vol. 3, PPO Update, No. 10, 1989). This in vitro prescreening system is based on the measurement of anticancer cytotoxicity against human cancer cell line panels consisting of approximately 60 cell lines of major human cancers (including leukemia and slower growing tumor cells such as lung, colon, breast, skin, kidney, etc.) and is referred hereinafter as “COMPARE” screening. An important advantage of the new in vitro screening panels is the opportunity to facilitate identification of compounds that are selectively more cytotoxic to cells of certain types of cancers, thus increasing the ability to select compounds for further study with respect to specific diseases. The indenoisoquinolines were examined for antiproliferative activity against the human cancer cell lines in the National Cancer Institute screen (COMPARE screening), in which the activity of each compound was evaluated with approximately […] different cancer cell lines of diverse tumor origins.
# UACC-62 = experiment: NCI human cancer cell line screen (COMPARE screening), Melanoma UACC-62; format: cell-based; details: Homo sapiens; UACC-62; concentration causing 50% growth inhibition; read-out: Cytotoxicity (G150 in μM) Melanoma UACC-62
# Source text: as §1
# [1] = test system: approximately 55 different cancer cell lines of diverse tumor origins; experiment: NCI screen mean graph midpoint over all cell lines tested; format: cell-based, human; details: for IC50: Homo sapiens, average GI50 for all cell lines tested (approximately 55), values outside test range taken as 10^-8 or 10^-4 molar, read-out: MGM (mean graph midpoint)
# Source text: as §1
# SN12C = experiment: NCI human cancer cell line screen (COMPARE screening), Renal SN12C; format: cell-based; details: Homo sapiens; SN12C; concentration causing 50% growth inhibition; read-out: Cytotoxicity (G150 in μM) Renal SN12C
# Source text: as §1
# HCT-116 = experiment: NCI human cancer cell line screen (COMPARE screening), Colon HCT-116; format: cell-based; details: Homo sapiens; HCT-116; concentration causing 50% growth inhibition; read-out: Cytotoxicity (G150 in μM) Colon HCT-116
# Source text: as §1
# OVCAR-3 = experiment: NCI human cancer cell line screen (COMPARE screening), Ovarian OVCAR-3; format: cell-based; details: Homo sapiens; OVCAR-3; concentration causing 50% growth inhibition; read-out: Cytotoxicity (G150 in μM) Ovarian OVCAR-3
# Source text: as §1
# HOP-62 = experiment: NCI human cancer cell line screen (COMPARE screening), Lung HOP-62; format: cell-based; details: Homo sapiens; HOP-62; concentration causing 50% growth inhibition; read-out: Cytotoxicity (G150 in μM) Lung HOP-62
# Source text: as §1
# MDA-MB-435 = experiment: NCI human cancer cell line screen (COMPARE screening), Breast MDA-MB-435; format: cell-based; details: Homo sapiens; MDA-MB-435; concentration causing 50% growth inhibition; read-out: Cytotoxicity (G150 in μM) Breast MDA-MB-435
# Source text: as §1
# SF-539 = experiment: NCI human cancer cell line screen (COMPARE screening), CNS SF-539; format: cell-based; details: Homo sapiens; SF-539; concentration causing 50% growth inhibition; read-out: Cytotoxicity (G150 in μM) CNS SF-539
# Source text: as §1
SMILES,Top 1 Cleavage (topoisomerase I),IC50 (DU-145) [µM],IC50 (UACC-62) [µM],IC50 [1] [µM],IC50 (SN12C) [µM],IC50 (HCT-116) [µM],IC50 (OVCAR-3) [µM],IC50 (HOP-62) [µM],IC50 (MDA-MB-435) [µM],cytotoxicity (MGM) relative to lead compound 1 ([1]; comparison in words),IC50 (SF-539) [µM]
"CCn1c2c(c3ccccc3c1=O)C(=O)c1ccccc1-2 [Compound 3, 6-Ethyl-5,6-dihydro-5,11-diketo-11H-indeno[1,2-c]isoquinoline]",0,–,–,–,–,–,–,–,–,–,–
"CCCn1c2c(c3ccccc3c1=O)C(=O)c1ccccc1-2 [Compound 4, 5,6-Dihydro-5,11-diketo-6-propyl-11H-indeno[1,2-c]isoquinoline]",0,–,–,–,–,–,–,–,–,–,–
"Cn1c2c(c3ccccc3c1=O)C(=O)c1cc3c(cc1-2)OCO3 [Compound 13a, 5,6-Dihydro-5,11-diketo-6-methyl-8,9-methylenedioxy-11H-indeno[1,2-c]isoquinoline]",+ (those compounds having between 20% and 50% of the activity of 1 μM camptothecin),> 100,> 100,45,> 100,54,> 100,22,–,–,–
"CCCCn1c2c(c3cc(OC)c(OC)cc3c1=O)C(=O)c1cc3c(cc1-2)OCO3 [Compound 13d, 6-(1-Butyl)-5,6-dihydro-5,11-diketo-2,3-dimethoxy-8,9-methylenedioxy11H-indeno[1,2-c]isoquinoline]",+ (those compounds having between 20% and 50% of the activity of 1 μM camptothecin),16,21,42,–,45,78,16,> 100,–,–
"COc1cc2c3c(n(Cc4ccccc4)c(=O)c2cc1OC)-c1cc2c(cc1C3=O)OCO2 [Compound 13e, 6-Benzyl-5,6-dihydro-5,11-diketo 2,3-dimethoxy-8,9-methylenedioxy-11H-indeno[1,2-c]isoquinoline]",± (those compounds having less than 20% of the activity of 1 μM camptothecin),4,50,42,–,> 100,> 100,12,> 100,lower MGM than the lead compound 1,–
"COc1cc2c(c(OC)c1OC)C(=O)c1c-2n(C)c(=O)c2ccccc12 [Compound 13j, 5,6-Dihydro-5,11-diketo-6-methyl-8,9,10-trimethoxy-11H-indeno[1,2-c]isoquinoline]",0,> 100,–,78,> 100,–,> 100,24,–,–,> 100
"COc1cc2c3c(n(C)c(=O)c2cc1OC)-c1cc(OC)c(OS(C)(=O)=O)cc1C3=O [Compound 23, 5,6-Dihydro-5,11-diketo-2,3,8-trimethoxy-6-methyl-9[(methylsulfonyl)oxy]-(11H)indeno[1,2-c]isoquinoline]",± (those compounds having less than 20% of the activity of 1 μM camptothecin),–,–,–,–,–,–,–,–,–,–
"CCN1C(=O)c2cc(OC)c(OC)cc2[C@@H]2[C@H]1c1cc3c(cc1[C@@H]2O)OCO3 [Compound 24, 6-Ethyl-5,6,12α,13α-tetrahydro-11β-hydroxy-2,3-dimethoxy-8,9-(methylenedioxy)-5-oxo-11H-indeno[1,2-c]isoquinoline]",0,> 100,–,100,> 100,> 100,> 100,> 100,> 100,–,> 100
"CCN1Cc2cc(OC)c(OC)cc2[C@@H]2[C@H]1c1cc3c(cc1[C@@H]2O)OCO3 [Compound 25, 6-Ethyl-5,6,12α,13α-tetrahydro-11β-hydroxy-2,3-dimethoxy-8,9-(methylenedioxy)-11H-indeno[1,2-c]isoquinoline]",0,41,–,31,26,35,24,30,25,–,50
